Laboratory results from patent publication US20220251079A1, “BENZO[B][1,8]NAPHTHYRIDINE ACETIC ACID DERIVATIVES AND METHODS OF USE” (STINGTHERA, INC., priority 2019, published 2022).

Experiments:
[1] = target: T1, hSTING-R232 (Homo sapiens, UniProt Q86WV6, H232R); assay: STING Differential Scanning Fluorimetry (DSF) assay, human; format: binding; conditions: human STING R232-WT, 5 μM protein
T1 construct: recombinant mouse or human STING protein (aa140-379); 6xHis-SUMO elsewhere) (cleaved yes); made in house
T1 sequence (Q86WV6 140-379 H232R): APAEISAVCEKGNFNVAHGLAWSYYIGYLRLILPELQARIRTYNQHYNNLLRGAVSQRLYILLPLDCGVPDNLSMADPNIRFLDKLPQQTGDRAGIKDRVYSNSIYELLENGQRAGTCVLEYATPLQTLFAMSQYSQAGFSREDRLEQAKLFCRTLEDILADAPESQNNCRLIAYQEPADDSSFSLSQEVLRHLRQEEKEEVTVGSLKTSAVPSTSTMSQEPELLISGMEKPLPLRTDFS
Description: A STING DSF assay was performed to determine protein thermostability shift in response to small molecule ligand binding. A STING thermostability shift assay based on differential scanning fluorimetry was used to measure (1) the net shift in melting temperature (ΔTm)between the apo and ligand-bound states of the STING protein and (2) the concentration of the thermal denaturation transition (FC50) as a surrogate measure of binding affinity (Kd). Briefly, recombinant mouse or human STING protein (aa140-379) comprising the C-terminal binding domain (R232-WT) were purified by affinity chromatography and further processed to remove the purification tag, followed by gel filtration to achieve purity >95%. Protein in assay buffer was transferred to a 384 well plate and incubated with the hydrophobic fluorescent dye SYBR Orange. A temperature ramp was applied to the plate and the resulting dye fluorescence was plotted as a function of temperature. The first derivative of this function (dF/dT) was then used to extrapolate the melting temperature of the protein at various concentrations of compound and determine the thermal denaturation profile of a protein/compound complex.
2. 5 μM purified Target STING Protein
4. Buffer: 100 mM NaCl, 30 mM HEPES, pH 7.5
5. Thermal Ramp: 0.5° C./min
7. 11 point, 2 fold dilution, duplicate, 300 μM high concentrations

[2] = target: T2, human STING protein (140-379) (Homo sapiens, UniProt Q86WV6, H232R); assay: Radiometric filtration binding competition assay (WT_FBA_HIS-SUMO-hSWAT); conditions: read-out: WT-hSWAT IC50
T2 construct: 6XHIS-SUMO-hSTING (140-379); made in house; host or cells: BL-21(DE3) E. coli, pET vector
T2 sequence (Q86WV6 140-379 H232R): as above
Description: A radiometric filtration binding competition assay was performed to quantify the binding affinity of compounds of the present application for the human or mouse STING protein, or associated HAQ human isoform. The competition format filtration binding assay detects the ability of small molecule compounds from binding to and inhibiting the subsequent binding of a tritiated [H3] […] The resulting dose response was fit by non-linear regression to determine an IC50 value, from which a Ki value for each compound was extrapolated.
Briefly, the recombinant C-terminal ligand binding domain of the human STING protein (140-379) or mouse STING protein (139-328) [0.5 μM] was incubated in the presence of a compound of the present application (8 point, 2 fold dilution starting at 300 μM) for 30 min or under control conditions. […] The resulting complexes were then filtered, dried, and scintillation fluid was added and the remaining radio signal was measured to determine the degree of compound ligand inhibition. This assay format was optimized for both the WT and HAQ isoforms of the human protein and the mouse orthologue protein.
Parameters optimized: • a. Form of protein: 6×HIS-SUMO tag or untagged • b. Concentration of target protein: Minimum concentration that achieved >80 max signal • c. Assay DMSO concentration: 10%-0.1% • d. Assay Buffer: Base (Tris or phosphate), Salt concentration, +/−Tween (0.1-2%) • e. […] Probe Concentration: Minimum concentration that achieved max assay window • g. Assay Format: Scintillation Proximity Bead or Filtration Binding Plate • h. Assay Plate: 384 vs 96 well format • i. Assay incubation times for successive incubation steps
WT-hSWAT: WT_FBA_HIS-SUMO-hSWAT IC50 (μM) (“WT”=Wild-type); and WT-mSWAT: MOUSE_FBA_HIS-SUMO-mSWAT C50 (μM) which is the mouse isoform of STING protein.

[3] = target: T3, STING protein (Homo sapiens, UniProt Q86WV6, H232R); assay: Cell based reporter assay of IRF activation (THP1-dual-KI R232, IRF luciferase); conditions: THP-1; read-out: THP1-dual-KI R232_IRF(Luciferase)_Activity Maximum measured (%)
T3 construct: host or cells: THP-1 dual reporter cells, TMEM173 modified from HAQ to R232 (THP1-dual-KI R232)
T3 sequence (Q86WV6 whole entry H232R): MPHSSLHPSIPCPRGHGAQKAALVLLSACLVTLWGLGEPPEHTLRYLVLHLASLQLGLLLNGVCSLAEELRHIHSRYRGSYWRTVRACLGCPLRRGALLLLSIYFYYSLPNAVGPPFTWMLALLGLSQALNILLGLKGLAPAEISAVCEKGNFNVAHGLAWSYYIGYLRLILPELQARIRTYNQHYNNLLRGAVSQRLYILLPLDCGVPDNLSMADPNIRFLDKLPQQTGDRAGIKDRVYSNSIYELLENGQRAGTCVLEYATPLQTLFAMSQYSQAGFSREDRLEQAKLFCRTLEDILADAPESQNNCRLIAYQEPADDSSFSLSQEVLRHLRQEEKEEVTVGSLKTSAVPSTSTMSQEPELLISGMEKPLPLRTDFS
From the text: Cell reporter assays were developed to measure the ability of compounds of the application to activate the STING protein and activate both IRF/IFN and the NFkB signaling pathways in the myeloid derived cell line THP-1, which is commercially available from several suppliers. Briefly, THP-1 monocytes were transfected and selected for stable integration of 2 reporter constructs. Clones incorporating stably integrated vectors were further selected by antibiotic resistance to blastocidin and zeocin. The reporter constructs included: (1) firefly luciferase reporter gene under the control of an ISG54 promoter fused to five interferon (IFN)-stimulated response elements to measure IRF transcription factor binding activity and (2) secreted embryonic alkaline phosphatase reporter gene under transcription control of an IFN-beta minimal promoter fused to 5 copies of the NFkB consensus transcriptional response element and 3 copies of the c-Rel binding site.
The resulting THP-1 cell line was further modified to incorporate 3 amino acid point mutations (H71R A230G Q293R). This modification of the native TMEM173 gene in THP-1 cells (HAQ) was designed to produce a cell reporter that expressed the most common allelic variant in the human population (THP-1 R232, available from InvivoGen). Alternatively, the TMEM173 gene was knocked out to provide a congenic control to counter-screen for compound activation that was independent of the STING protein (THP-1 STING KO).
Once cell lines were established, reporter assay protocols were developed and optimized to screen small molecule compounds for agonist activity. Assay optimization for efficacy and Z′ value included titration of the following parameters:
1. No pre-activation with PMA
2. […]cells/well in 96 well plate format
7. Cell Titer Glo reagent (Promega) following supermatant removal
9. 8 point, 2 fold, duplicate starting at 150 μM PP28T

| Structure (SMILES) | WT_DSF_hSWAT Tm Shift (° C.) [1] | IC50 [2] | Emax [3] |
| --- | --- | --- | --- |
| CCOc1c(Cl)ccc2c(=O)c3ccc(C(C)(C)C#N)nc3n(CC(=O)O)c12 [Compound 25, sodium 2-(8-chloro-2-(2-cyanopropan-2-yl)-9-ethoxy-5-oxobenzo[b][1,8]naphthyridin-10(5H)-yl)acetate] | D (“D” > 7° C.) | 20 to 100 µM | > 50% |
| CCOc1c(Cl)ccc2c(=O)c3ccc(N(CCOC)C4CC4)nc3n(CC(=O)O)c12 [Compound 29, sodium 2-(8-chloro-2-(cyclopropyl(2-methoxyethyl)amino)-9-ethoxy-5-oxobenzo[b][1,8]naphthyridin-10(5H)-yl)acetate] | D (“D” > 7° C.) | 20 to 100 µM | > 50% |
| CCN(c1ccc2c(=O)c3ccc(Cl)c(SC)c3n(CC(=O)O)c2n1)C1COC1 [Compound 30, sodium 2-(8-chloro-2-(ethyl(oxetan-3-yl)amino)-9-(methylthio)-5-oxobenzo[b][1,8]naphthyridin-10(5H)-yl)acetate] | D (“D” > 7° C.) | < 20 µM | > 50% |
| CCOc1c(Cl)ccc2c(=O)c3ccc(C(C)=O)nc3n(CC(=O)O)c12 [Compound 31, sodium 2-(2-acetyl-8-chloro-9-ethoxy-5-oxobenzo[b][1,8]naphthyridin-10(5H)-yl)acetate] | C (“C” = 2-7° C.) | 100 to 300 µM | > 50% |
| CSc1c(Cl)ccc2c(=O)c3ccc(N(C)CCS(C)(=O)=O)nc3n(CC(=O)O)c12 [Compound 34, Sodium 2-{8-chloro-2-[(2-methanesulfonylethyl)(methyl)amino]-9-(methylsulfanyl)-5-oxobenzo[b]1,8-naphthyridin-10-yl}acetate] | D (“D” > 7° C.) | 20 to 100 µM | 25 to 50% |
| CSc1c(Cl)ccc2c(=O)c3ccc(N(C)CCS(=O)(=O)C(C)C)nc3n(CC(=O)O)c12 [Compound 35, sodium 2-(8-chloro-2-{methyl[2-(propane-2-sulfonyl)ethyl]amino}-9-(methylsulfanyl)-5-oxobenzo[b]1,8-naphthyridin-10-yl)acetate] | D (“D” > 7° C.) | 20 to 100 µM | > 50% |
| CSc1c(Cl)ccc2c(=O)c3ccc(N(C)CC4CC(F)(F)C4)nc3n(CC(=O)O)c12 [Compound 36, Sodium 2-(8-chloro-2-(((3,3-difluorocyclobutyl)methyl)(methyl)amino)-9-(methylthio)-5-oxobenzo[b][1,8]naphthyridin-10(5H)-yl)acetate] | D (“D” > 7° C.) | 20 to 100 µM | > 50% |
| CSc1c(Cl)ccc2c(=O)c3ccc(N(CC4CC4)CC4CC(F)(F)C4)nc3n(CC(=O)O)c12 [Compound 37, sodium 2-(8-chloro-2-((Cyclopropylmethyl)((3,3-difluorocyclobutyl)methyl)amino)-9-(methylthio)-5-oxobenzo[b][1,8]naphthyridin-10(5H)-yl)acetate] | D (“D” > 7° C.) | 20 to 100 µM | > 50% |
| CSc1c(Cl)ccc2c(=O)c3ccc(N(CC4CC4)CC4COC4)nc3n(CC(=O)O)c12 [Compound 38, sodium 2-(8-chloro-2-((cyclopropylmethyl)(oxetan-3-ylmethyl)amino)-9-(methylthio)-5-oxobenzo[b][1,8]naphthyridin-10(5H)-yl)acetate] | D (“D” > 7° C.) | 20 to 100 µM | > 50% |
| COC1CC(CN(C)c2ccc3c(=O)c4ccc(Cl)c(SC)c4n(CC(=O)O)c3n2)C1 (stereo not drawn) [Compound 39, Sodium 2-(8-chloro-2-(((3-methoxycyclobutyl)methyl)(methyl)amino)-9-(methylthio)-5-oxobenzo[b][1,8]naphthyridin-10(5H)-yl)acetate] | D (“D” > 7° C.) | 20 to 100 µM | > 50% |
| COC1CC(CN(CC2CC2)c2ccc3c(=O)c4ccc(Cl)c(SC)c4n(CC(=O)O)c3n2)C1 (stereo not drawn) [Compound 40, sodium 2-(8-chloro-2-((cyclopropylmethyl)((3-methoxycyclobutyl)methyl)amino)-9-(methylthio)-5-oxobenzo[b][1,8]naphthyridin-10(5H)-yl)acetate] | D (“D” > 7° C.) | 20 to 100 µM | > 50% |

Continued, values first:

| WT_DSF_hSWAT Tm Shift (° C.) [1] | IC50 [2] | Emax [3] | Structure (SMILES) |
| --- | --- | --- | --- |
| D (“D” > 7° C.) | 20 to 100 µM | > 50% | CSc1c(Cl)ccc2c(=O)c3ccc(C(C)(C)C#N)nc3n(CC(=O)O)c12 [Compound 24, sodium 2-(8-chloro-2-(2-cyanopropan-2-yl)-9-(methylthio)-5-oxobenzo[b][1,8]naphthyridin-10(5H)-yl)acetate] |
| D (“D” > 7° C.) | < 20 µM | > 50% | CN(C)c1c(Cl)ccc2c(=O)c3ccc(N(C)CC4CC(F)(F)C4)nc3n(CC(=O)O)c12 [Compound 26, sodium 2-(8-chloro-2-(((3,3-difluorocyclobutyl)methyl) (methyl)amino)-9-(dimethylamino)-5-oxobenzo[b][1,8]naphthyridin-10(5H)-yl)acetate] |
| D (“D” > 7° C.) | 20 to 100 µM | > 50% | CSc1c(Cl)ccc2c(=O)c3ccc(N(C)CC4CCOCC4)nc3n(CC(=O)O)c12 [Compound 27, 2-(8-chloro-2-(methyl((tetrahydro-2H-pyran-4-yl)methyl)amino)-9-(methylthio)-5-oxobenzo[b][1,8]naphthyridin-10(5H)-yl)acetic acid] |
| D (“D” > 7° C.) | < 20 µM | > 50% | COCCN(c1ccc2c(=O)c3ccc(Cl)c(SC)c3n(CC(=O)O)c2n1)C1CC1 [Compound 28, sodium 2-(8-chloro-2-(cyclopropyl(2-methoxyethyl)amino)-9-(methylthio)-5-oxobenzo[b][1,8]naphthyridin-10(5H)-yl)acetate] |
| C (“C” = 2-7° C.) | 100 to 300 µM | > 50% | CSc1c(Cl)ccc2c(=O)c3ccc(C(C)=O)nc3n(CC(=O)O)c12 [Compound 32, sodium 2-(2-acetyl-8-chloro-9-(methylthio)-5-oxobenzo[b][1,8]naphthyridin-10(5H)-yl)acetate] |
| D (“D” > 7° C.) | 20 to 100 µM | > 50% | CCOc1c(Cl)ccc2c(=O)c3ccc(N(C)CC4CCOCC4)nc3n(CC(=O)O)c12 [Compound 33, 2-(8-chloro-9-ethoxy-2-(methyl((tetrahydro-2H-pyran-4-yl)methyl)amino)-5-oxobenzo[b][1,8]naphthyridin-10(5H)-yl)acetic acid] |
